The values that follow come from ChEMBL document CHEMBL1201862, “PubChem BioAssay data set” (2004).

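Following 48 hours of exposure in 96-well plates, responses at five concentrations were used to interpolate endpoints linearly. GI50 = concentration required for 50% inhibition of growth.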 The source made the active and inactive calls. No stated cut-off is given here; in the data, active = GI50 up to about 1.1 µM and inactive = higher.

Holding throughout (test): inhibition of tumour cell growth, NCI panel, 48 h
Test [1] relates to SK-MEL-5.
In test [2] the test system is U-251.
The subject of test [3] is LXFL 529.
For test [4], the system named is NCI-H460.
The subject of test [5] is HOP-92.
Test [6] relates to HCT-116.
The subject of test [7] is HCT-15.
Test [8] deals with TK-10.
Test [9] relates to CCRF-CEM.
Test [10] has as its system SF-268.
For test [11], the system named is SW-620.
Test [12] concerns HOP-62.
Test [13] has as its system 786-0.
Test [14] concerns SK-OV-3.
For test [15], the system named is NCI-H226.
For test [16], the system named is OVCAR-3.
Test [17] concerns OVCAR-4.
In test [18] the test system is SR.
The subject of test [19] is T47D.
Test [20] relates to NCI/ADR-RES.

Consider `Cn1nc(-c2ccccc2)c(C(=O)/C=C/c2ccc(Cl)cc2)c(N2CCCC2)c1=O`, for which the GI50 in [1] is 5.46 µM (inactive); in test [2], 4.27 µM (inactive); in test [3], 3.47 µM (inactive); in test [4], 3.86 µM (inactive); in test [5] it was 1.67 µM (inactive); in test [6], 2.56 µM (inactive). Also, the GI50 in test [7] was 3.75 µM; in test [8], 11.6 µM (inactive); in [9], 2.46 µM (inactive); in test [10] it was 4.61 µM (inactive); in [11] it was 4.02 µM (inactive); in test [12], 2.23 µM (inactive). For the same compound, the GI50 in test [13] is 3.13 µM (inactive); in test [14], 4.99 µM (inactive).
`COC1(C)CNCC(C)(C)NC(=O)C(C)(OC)CNCC(C)(C)NC1=O` (centres undefined): the GI50 in test [1], in test [2], in [3], in test [4], in [5] and in test [15] was > 100 µM (inactive) throughout. The GI50 is > 100 µM (inactive) in test [6]; > 100 µM (inactive) in [16]; > 100 µM (inactive) in test [17]; over 100 µM in test [7]; > 100 µM (inactive) in test [8]; > 100 µM (inactive) in test [9]. The GI50 in [10] is > 100 µM (inactive); in test [11], 49.4 µM (inactive); in test [12], > 100 µM (inactive); in test [13] it was > 100 µM (inactive); in [14] it was > 100 µM (inactive).
Regarding `CC1=NN(C(=O)c2ccc(Cl)cc2)C(=O)/C1=C/c1c(O)cc(O)c2ccccc12`, the GI50 in test [1], in test [2], in [3], in [4], in test [5] and in test [6] was > 100 µM (inactive) throughout. The GI50 in test [16], in test [17], in test [8], in [9], in [10] and in test [11] was > 100 µM (inactive) throughout. Further, the GI50 in [12], in test [13] and in test [14] was > 100 µM (inactive) throughout.
`C=C1C(=O)OC2/C=C(/C)C3CC(O)C(C)(CC(OC(=O)/C(C)=C/C)C12)O3` (centres undefined): the GI50 is 4.68 µM (inactive) in test [1]; 9.04 µM (inactive) in test [2]; 2.08 µM (inactive) in test [3]; 6.18 µM (inactive) in [4]; 2.98 µM (inactive) in test [5]; 14.7 µM (inactive) in test [15]. The GI50 is 1.53 µM (inactive) in test [6]; 3.78 µM (inactive) in test [16]; 7.55 µM (inactive) in test [17]; 1.76 µM in test [7]; 8.24 µM (inactive) in test [8]; 0.508 µM (active) in test [9]. Also, the GI50 is 4.2 µM (inactive) in test [10]; 1.65 µM (inactive) in test [11]; 25.1 µM (inactive) in [12]; 3.29 µM (inactive) in [13]; 36.1 µM (inactive) in test [14].
Regarding `CC(=O)CC(=O)CCC(=O)Nc1cccc(C(F)(F)F)c1`, the GI50 in [1], in test [2], in test [3], in test [4], in [5] and in test [15] was > 100 µM (inactive) throughout. The GI50 in test [6] is > 100 µM (inactive); in test [16] it was > 100 µM (inactive); in test [17], > 100 µM (inactive); in [7] it was over 100 µM; in test [8], > 100 µM (inactive); in test [9], > 100 µM (inactive). For the same compound, the GI50 in test [10], in [11], in test [12], in test [13] and in test [14] was > 100 µM (inactive) in each case.
Regarding `Cn1cc(NC(=O)c2cc(NC(=O)CCCCCC(=O)Nc3cc(C(=O)Nc4cc(C(=O)NCCC(=N)N)n(C)c4)n(C)c3)cn2C)cc1C(=O)NCCC(=N)N`, the GI50 in test [1] was 51.3 µM (inactive); in test [2], > 100 µM (inactive); in test [3], > 100 µM (inactive); in test [4], 26.4 µM (inactive); in [5], > 100 µM (inactive); in test [6], 67.1 µM (inactive). Also, the GI50 in test [16] is > 100 µM (inactive); in test [17] it was > 100 µM (inactive); in [7] it was over 100 µM; in test [8], > 100 µM (inactive); in [9], > 100 µM (inactive); in [10], > 100 µM (inactive). Also, the GI50 in test [11], in test [13] and in test [14] was > 100 µM (inactive) each time.
On to `O=C(c1ccccc1)N1C2C3CC(OCc4ccccc4)(OCc4ccccc4)C(O3)C21` (centres undefined), for which the GI50 in test [1], in test [2], in test [3], in test [4], in test [5] and in test [15] was > 100 µM (inactive) each time. In addition, the GI50 in [6] is > 100 µM (inactive); in test [17] it was > 100 µM (inactive); in test [7] it was over 100 µM; in test [8], > 100 µM (inactive); in test [9] it was > 100 µM (inactive); in test [10], > 100 µM (inactive). Moreover, the GI50 in [11], in test [12], in test [13] and in test [14] was > 100 µM (inactive) in each case.
For the compound `O=c1cccccc1O.O=c1cccccc1O.O=c1cccccc1O.[SiH4]`, the GI50 in test [1] is 24.8 µM (inactive); in test [2] it was 21.3 µM (inactive); in [3], 18.8 µM (inactive); in [5] it was 37.9 µM (inactive); in [6] it was 13.6 µM (inactive); in [16] it was 24.2 µM (inactive). Further, the GI50 in [17] was 11.9 µM (inactive); in test [8] it was 74 µM (inactive); in test [9] it was 2.64 µM (inactive); in test [10], 42.9 µM (inactive); in test [11], 10.4 µM (inactive); in [12], 28.4 µM (inactive). Also, the results for the GI50 in test [13] and in [14] were 33 µM (inactive) and 31.8 µM (inactive), respectively.
Regarding `COc1c(O)cc2oc(-c3ccc(O)cc3)cc(=O)c2c1O` [HISPIDULIN], the GI50 in test [1] was 15.5 µM (inactive); in test [2], 42.7 µM (inactive); in test [4], 30.8 µM (inactive); in test [18], 27.9 µM (inactive); in test [5] it was 2.91 µM (inactive); in test [15], 77.6 µM (inactive). The GI50 was 35.3 µM (inactive) in test [6]; 44.1 µM (inactive) in [16]; 35.8 µM (inactive) in test [17]; 33.4 µM (inactive) in test [19]; 38.7 µM in test [7]; 39.2 µM (inactive) in [8]. Moreover, the GI50 in test [9] is 20.6 µM (inactive); in [10], 46.6 µM (inactive); in test [11] it was 34.1 µM (inactive); in test [12] it was 46.7 µM (inactive); in test [13] it was 60.1 µM (inactive); in test [20], 36.1 µM (inactive). Moreover, the GI50 in [14] was 48.2 µM (inactive).
